Experiments:
Assay in all cases: NCI 5-dose assay
Type in all cases: cell-based
COLO 205 = conditions: Homo sapiens; COLO 205, Colon cancer
Procedure: (§1) The synthesized dichlorobenzimidazoles 10a–p were assayed for their influence on divers cancer cell lines according to the method presented in the Additional file A.
(§2) 5. Screening of cytotoxic activity against a panel of sixty human tumor cell lines
(§3) The selected compounds by NCI were evaluated for their anticancer activity in a two-stage process. First, these compounds were screened against the full NCI 60 cell lines panel at a single high dose of 10 µM. Then, the output from the single dose screen is reported as a mean graph. […]
(§4) at five different minimal concentrations.
(§5) Assay protocol. The human tumor cell lines of the cancer screening panel are grown in RPMI 1640 medium containing 5% fetal bovine serum and 2 mM L-glutamine. For a typical screening experiment, cells are inoculated into 96 well microtiter plates in 100 µL at plating densities ranging from 5000 to 40,000 cells/well depending on the doubling time of individual cell lines. After cell inoculation, the microtiter plates are incubated at 37 °C, 5% CO 2, 95% air and 100% relative humidity for 24 h prior to addition of the experimental drugs.
(§6) After 24 h, two plates of each cell line are fixed in situ with TCA, to represent a measurement of the cell population for each cell line at the time of drug addition (Tz). The experimental drugs are solubilized in dimethyl sulfoxide at 400-fold the desired final maximum test concentration and stored frozen prior to use. At the time of drug addition, an aliquot of frozen concentrate is thawed and diluted to twice the desired final maximum test concentration with complete medium containing 50 µg/mL gentamicin. Additional four, 10-fold or ½ log serial dilutions are made to provide a total of five drug concentrations plus control.
(§7) Aliquots of […] of these different drug dilutions are added to the appropriate microtiter wells already containing […] of medium, resulting in the required final drug concentrations.
(§8) Following drug addition, the plates are incubated for an additional 48 h at 37 °C, 5% CO 2, 95% air, and 100% relative humidity. For adherent cells, the assay is terminated by the addition of cold TCA.
(§9) Cells are fixed in situ by the gentle addition of 50 µL of cold 50% (w/v) TCA (final concentration, 10% TCA) and incubated for 60 min at 4 °C. The supernatant is discarded, and the plates are washed five times with tap water and air dried. Sulforhodamine B (SRB) solution ([…]) at 0.4% (w/v) in 1% acetic acid is added to each well, and plates are incubated for 10 min at room temperature. After staining, unbound dye is removed by washing five times with 1% acetic acid and the plates are air dried. Bound stain is subsequently solubilized with 10 mM trizma base, and the absorbance is read on an automated plate reader at a wavelength of 515 nm. For suspension cells, the methodology is […]
(§10) the same except that the assay is terminated by fixing settled cells at the bottom of the wells by gently adding 50 µl of 80% TCA (final concentration, 16% TCA). Using the seven absorbance measurements [time zero, (Tz), control growth, (C), and test growth in the presence of drug at the five concentration levels (Ti)], the percentage growth is calculated at each of the drug concentrations […]
(§11) Percentage growth inhibition is calculated as: [(Ti Tz)/(C–Tz)] x 100 for concentrations for which Ti>/=Tz and [(Ti-Tz)/Tz] x 100 for concentrations for which Ti < Tz.
(§12) Three dose response parameters are calculated for each experimental agent. Growth […]
(§13) concentration resulting in a 50% reduction in the net protein increase (as measured by SRB staining) in control cells during the drug incubation. The drug concentration resulting in total growth inhibition (TGI) is calculated from Ti = Tz. […]
(§14) reduction in the measured protein at the end of the drug treatment as compared to that at the beginning) indicating a net loss of cells following treatment is calculated from [(Ti–Tz)/Tz] x 100 =
(§15) _50. Values are calculated for each of these three parameters if the level of activity is reached; […]

LOX IMVI = conditions: Homo sapiens, Melanoma
Procedure: as §1, §2, §3, §4, §5, §6, §7, §8, §9, §10, §11, §12, §13, §14, §15

U251 = conditions: Homo sapiens, U-251; U251, CNS cancer
Procedure: as §1, §2, §3, §4, §5, §6, §7, §8, §9, §10, §11, §12, §13, §14, §15

A498 = conditions: Homo sapiens; A498, Renal cancer
Procedure: as §1, §2, §3, §4, §5, §6, §7, §8, §9, §10, §11, §12, §13, §14, §15

NCI-H226 = conditions: Homo sapiens; NCI-H226, Non-small cell lung cancer
Procedure: as §1, §2, §3, §4, §5, §6, §7, §8, §9, §10, §11, §12, §13, §14, §15

NCI-H23 = conditions: Homo sapiens; NCI-H23, Non-small cell lung cancer
Procedure: as §1, §2, §3, §4, §5, §6, §7, §8, §9, §10, §11, §12, §13, §14, §15

RXF 393 = conditions: Homo sapiens; RXF 393, Renal cancer
Procedure: as §1, §2, §3, §4, §5, §6, §7, §8, §9, §10, §11, §12, §13, §14, §15

SF-268 = conditions: Homo sapiens; SF-268, CNS cancer
Procedure: as §1, §2, §3, §4, §5, §6, §7, §8, §9, §10, §11, §12, §13, §14, §15

OVCAR-8 = conditions: Homo sapiens; OVCAR-8, Ovarian cancer
Procedure: as §1, §2, §3, §4, §5, §6, §7, §8, §9, §10, §11, §12, §13, §14, §15

SK-MEL-5 = conditions: Homo sapiens; SK-MEL-5, Melanoma
Procedure: as §1, §2, §3, §4, §5, §6, §7, §8, §9, §10, §11, §12, §13, §14, §15

TK-10 = conditions: Homo sapiens; TK-10, Renal cancer
Procedure: as §1, §2, §3, §4, §5, §6, §7, §8, §9, §10, §11, §12, §13, §14, §15

SN12C = conditions: Homo sapiens, Renal cancer
Procedure: as §1, §2, §3, §4, §5, §6, §7, §8, §9, §10, §11, §12, §13, §14, §15

SK-MEL-28 = conditions: Homo sapiens; SK-MEL-28, Melanoma
Procedure: as §1, §2, §3, §4, §5, §6, §7, §8, §9, §10, §11, §12, §13, §14, §15

MALME-3M = conditions: Homo sapiens, Melanoma
Procedure: as §1, §2, §3, §4, §5, §6, §7, §8, §9, §10, §11, §12, §13, §14, §15

PC-3 = conditions: Homo sapiens; PC-3, Prostate cancer
Procedure: as §1, §2, §3, §4, §5, §6, §7, §8, §9, §10, §11, §12, §13, §14, §15

OVCAR-4 = conditions: Homo sapiens; OVCAR-4, Ovarian cancer
Procedure: as §1, §2, §3, §4, §5, §6, §7, §8, §9, §10, §11, §12, §13, §14, §15

DU-145 = conditions: Homo sapiens; DU-145, Prostate cancer
Procedure: as §1, §2, §3, §4, §5, §6, §7, §8, §9, §10, §11, §12, §13, §14, §15

HCC-2998 = conditions: Homo sapiens; HCC-2998, Colon cancer
Procedure: as §1, §2, §3, §4, §5, §6, §7, §8, §9, §10, §11, §12, §13, §14, §15

SNB-75 = conditions: Homo sapiens; SNB-75, CNS cancer
Procedure: as §1, §2, §3, §4, §5, §6, §7, §8, §9, §10, §11, §12, §13, §14, §15

HS 578T = conditions: Homo sapiens, Breast cancer
Procedure: as §1, §2, §3, §4, §5, §6, §7, §8, §9, §10, §11, §12, §13, §14, §15

HT29 = conditions: Homo sapiens, HT-29; HT29, Colon cancer
Procedure: as §1, §2, §3, §4, §5, §6, §7, §8, §9, §10, §11, §12, §13, §14, §15

M14 = conditions: Homo sapiens; M14, Melanoma
Procedure: as §1, §2, §3, §4, §5, §6, §7, §8, §9, §10, §11, §12, §13, §14, §15

OVCAR-3 = conditions: Homo sapiens; OVCAR-3, Ovarian cancer
Procedure: as §1, §2, §3, §4, §5, §6, §7, §8, §9, §10, §11, §12, §13, §14, §15

For COC(=O)COc1ccc(C=NNC(=O)Cn2c(-c3ccc(OC)cc3)nc3cc(Cl)c(Cl)cc32)cc1 [Compound 10h, Methyl-2-(4-((2-(2-(5,6-dichloro-2-(4-methoxyphenyl)-1H-benzo[d]imidazol-1-yl)acetyl)hydrazono)methyl)phenoxy)acetate], the GI50 (COLO 205) was 16.5 µM, the GI50 (LOX IMVI) was 6.83 µM and the GI50 (U251) was 14.1 µM. The GI50 (A498) was 15.4 µM, the GI50 (NCI-H226) was > 82.5 µM and the GI50 (NCI-H23) was > 82.5 µM. It also gave a GI50 (RXF 393) of 2.85 µM, a GI50 (SF-268) of 10.1 µM and a GI50 (OVCAR-8) of 2.93 µM. It also gave a GI50 (SK-MEL-5) of 80.9 µM, a GI50 (TK-10) of 13.2 µM and a GI50 (SN12C) of 2.95 µM. For the same compound, the GI50 (SK-MEL-28) was 11.7 µM, the GI50 (MALME-3M) was 9.18 µM and the GI50 (PC-3) was 4.45 µM. For the same compound, the GI50 (OVCAR-4) was 17.2 µM, the GI50 (DU-145) was 1.67 µM and the GI50 (HCC-2998) was 13.1 µM. For the same compound, the GI50 (SNB-75) was 2.14 µM, the GI50 (HS 578T) was 10.1 µM and the GI50 (HT29) was 1.79 µM. It also gave a GI50 (M14) of 17.5 µM and a GI50 (OVCAR-3) of 10.6 µM.

In the case of COC(=O)COc1cc(C=NNC(=O)Cn2c(-c3ccc(OC)cc3)nc3cc(Cl)c(Cl)cc32)ccc1OC [Compound 10o, Methyl-2-(5-((2-(2-(5,6-dichloro-2-(4-methoxyphenyl)-1H-benzo[d]imidazol-1-yl)acetyl)hydrazono)methyl)-2-methoxyphenoxy)acetate], the GI50 (COLO 205) was > 100 µM, the GI50 (LOX IMVI) was > 100 µM and the GI50 (U251) was > 100 µM. For the same compound, the GI50 (A498) was > 100 µM, the GI50 (NCI-H226) was > 100 µM and the GI50 (NCI-H23) was > 100 µM. For the same compound, the GI50 (RXF 393) was 11 µM, the GI50 (SF-268) was > 100 µM and the GI50 (OVCAR-8) was 8.68 µM. For the same compound, the GI50 (SK-MEL-5) was > 100 µM, the GI50 (TK-10) was 18.3 µM and the GI50 (SN12C) was 7.92 µM. For the same compound, the GI50 (SK-MEL-28) was > 100 µM, the GI50 (MALME-3M) was > 100 µM and the GI50 (PC-3) was 17.2 µM. It also gave a GI50 (OVCAR-4) of 20.5 µM, a GI50 (DU-145) of 4.79 µM and a GI50 (HCC-2998) of 13.4 µM. It also gave a GI50 (SNB-75) of 14.4 µM, a GI50 (HS 578T) of 2.68 µM and a GI50 (HT29) of 12.9 µM. The GI50 (M14) was > 100 µM and the GI50 (OVCAR-3) was > 100 µM.

With COC(=O)COc1ccc(C=NNC(=O)Cn2c(-c3ccc(OC)cc3)nc3cc(Cl)c(Cl)cc32)cc1OC [Compound 10p, Methyl-2-(4-((2-(2-(5,6-dichloro-2-(4-methoxyphenyl)-1H-benzo[d]imidazol-1-yl)acetyl)hydrazono)methyl)-2-methoxyphenoxy)acetate] the GI50 (COLO 205) was 18.2 µM, the GI50 (LOX IMVI) was 31.2 µM and the GI50 (U251) was > 72.5 µM. The GI50 (A498) was 11.6 µM, the GI50 (NCI-H226) was > 72.5 µM and the GI50 (NCI-H23) was > 72.5 µM. It also gave a GI50 (RXF 393) of 1.43 µM, a GI50 (SF-268) of 32.4 µM and a GI50 (OVCAR-8) of 2.54 µM. For the same compound, the GI50 (SK-MEL-5) was > 72.5 µM, the GI50 (TK-10) was 12.6 µM and the GI50 (SN12C) was 2.2 µM. The GI50 (SK-MEL-28) was > 72.5 µM, the GI50 (MALME-3M) was > 72.5 µM and the GI50 (PC-3) was 4.38 µM. It also gave a GI50 (OVCAR-4) of 23 µM, a GI50 (DU-145) of 1.9 µM and a GI50 (HCC-2998) of 11.7 µM. It also gave a GI50 (SNB-75) of 1.73 µM, a GI50 (HS 578T) of 4.34 µM and a GI50 (HT29) of 1.46 µM. The GI50 (M14) was > 72.5 µM and the GI50 (OVCAR-3) was > 72.5 µM.
